US20150329537A2, “CDK9 INHIBITORS IN THE TREATMENT OF MIDLINE CARCINOMA” (LEADDISCOVERY CENTER GMBH, priority 2011, published 2015)

Key:
HCC2429 cells = experiment: Proliferation / cell viability assay (Cell Titer Glo); type: cell-based; conditions: FIG. 1; for effect on proliferation of HCC2429 cells (in words): dose response experiments
Description: Proliferation assays were performed as described below under materials and methods. […] (Cpd B1 and Ro-3306) were applied at concentrations between 30 and 0.0137 μM. After 72 h incubation with compounds ATP content/proliferation was determined employing CTG (Promega). Relative proliferation values (compared to vehicle control) were used to calculate IC50 values (Excel fit; algorithm #205). IC50s of the respective compound (Y-axis; logarithmic scale) on proliferation of various cell lines (X-axis) are depicted in black bars. White bars indicate that an IC50 could not be determined due to too low activity and therefore was higher than the highest applied concentration in the assays (30 μM). IC50s of compounds on CDK9 inhibitor sensitive cell line HCC2429 are presented in grey bars.
Cell lines were maintained in RPMI 1640 cell culture medium+glutamine (PAN Biotech GmbH, Aidenbach, Germany; order no. P04-22100; P04-05500) supplemented with 10% fetal calf serum “Gold” (PAA Laboratories GmbH, Pasching, Austria; order no. A15-151) and grown in a humidified atmosphere at 37° C., 5% C02. As a first step, an optimal cell density for each cell line was determined to guarantee linearity. For viability assays with compounds, cells were then seeded at a density of 200 to 1000 per well in 25 μl in 384-well plates (Greiner Bio-One, Frickenhausen, Germany; order no. 781080). After overnight incubation at 37° C./5% CO2, 25 nl or 75 nl compounds were added to each sample well by using BIOMEK FX^P Laboratory Automation Workstation (Beckman Coulter, USA). Wells with cells and 0.1% or 0.3% DMSO in culture medium were used as positive controls, wells with cells and 10 μM staurosporine (Selleck Chemicals, Huston, USA) in culture medium were used as negative controls. Upon incubation with compounds for 72 h at 37° C./5% CO2 25 μl Cell Titer Glo reagent (Promega, Madison, USA, order no. G7573; 1:2 diluted with cell culture medium) was added to each well to determine cell viability. […] Luminescence was measured by Envision Plate Reader (Perkin Elmer, USA). […]

CDK9/CycT = biological target: T1, CDK9/CycT (Homo sapiens, UniProt P50750); experiment: Radiometric protein kinase assay (33PanQinase Activity Assay); type: biochemical; conditions: 10 μM compound, compared to vehicle control, 23 different kinases, FIG. 3
T1 construct: purchased ProQinase
T1 sequence (P50750 whole entry): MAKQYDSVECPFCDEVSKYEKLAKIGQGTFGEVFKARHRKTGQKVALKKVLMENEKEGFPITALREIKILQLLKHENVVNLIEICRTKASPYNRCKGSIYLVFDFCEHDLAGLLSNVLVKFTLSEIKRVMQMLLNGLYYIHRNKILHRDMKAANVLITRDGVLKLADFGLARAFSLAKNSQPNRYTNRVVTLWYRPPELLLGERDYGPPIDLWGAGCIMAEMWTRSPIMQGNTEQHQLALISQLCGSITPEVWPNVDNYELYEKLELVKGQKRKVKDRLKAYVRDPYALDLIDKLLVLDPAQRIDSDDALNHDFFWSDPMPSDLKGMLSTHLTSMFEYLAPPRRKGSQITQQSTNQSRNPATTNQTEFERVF
T1 sequence (O60563 whole entry partner): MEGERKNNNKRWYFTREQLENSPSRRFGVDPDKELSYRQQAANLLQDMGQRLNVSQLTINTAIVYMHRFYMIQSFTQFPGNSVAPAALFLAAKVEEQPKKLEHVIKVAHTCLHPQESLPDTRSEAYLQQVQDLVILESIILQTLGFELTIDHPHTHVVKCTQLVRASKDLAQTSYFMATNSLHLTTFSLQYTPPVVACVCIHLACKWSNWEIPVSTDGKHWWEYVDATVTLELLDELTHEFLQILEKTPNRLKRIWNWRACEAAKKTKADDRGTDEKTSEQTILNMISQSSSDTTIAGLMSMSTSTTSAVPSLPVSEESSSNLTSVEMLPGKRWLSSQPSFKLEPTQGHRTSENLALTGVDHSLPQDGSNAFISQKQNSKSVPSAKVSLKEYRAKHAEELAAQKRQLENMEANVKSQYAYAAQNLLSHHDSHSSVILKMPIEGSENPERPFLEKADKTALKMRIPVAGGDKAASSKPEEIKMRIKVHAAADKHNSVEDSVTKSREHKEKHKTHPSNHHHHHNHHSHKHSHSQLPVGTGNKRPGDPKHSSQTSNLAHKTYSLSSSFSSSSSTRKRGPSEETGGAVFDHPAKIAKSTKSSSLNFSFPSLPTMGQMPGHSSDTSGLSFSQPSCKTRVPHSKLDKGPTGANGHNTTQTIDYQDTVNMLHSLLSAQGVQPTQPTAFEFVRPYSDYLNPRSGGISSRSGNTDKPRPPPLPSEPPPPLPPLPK
Description: A similar experimental procedure is performed when the resulting activity within ^33PanQinase® assay is done. In advance buffers are prepared but in this case the pipetting sequence is first ATP solution diluted with assay buffer, DMSO or compound solution. The reaction (1 h at 30° C.) is started by addition of a substrate-kinase mix. During the incubation the kinase phosphorylates the substrate (different for each kinase). Due to the fact that the ATP solution contains ^33P labelled ATP the substrate proteins are labeled with ^33P. The reaction is stopped by addition of excess H3PO4. If the reaction is performed in plates binding substrate proteins, said plates are washed to reduce unspecific signals (mainly not used ATP). The incorporation of ^33P into substarte proteins is a direct measure of activity of the respective kinase. Therefore, the incorporated radioactivity is detected by scintillation counting. Data is evaluated, processed and analyzed as described for the LANCE assays.
A radiometric protein kinase assay (33PanQinase® Activity Assay) was used for measuring the kinase activity of the […] protein kinases. […]
The reaction cocktails were incubated at 30° C. for 60 minutes. […] Incorporation of 33Pi (counting of “cpm”) was determined with a microplate scintillation counter (Microbeta, Wallac).

[1] = test system: Brd4-Nut mutated cell lines (HCC2429, TY-82, 690100, 143100); experiment: Proliferation assay on Brd4-Nut mutated versus wild type cell lines; type: cell-based; conditions: mutated: HCC2429, TY-82, 690100, 143100; wild type: Hela, HCC366, H460, HCC1143, hPBMCs; FIG. 4
Description: The proliferation results are presented as IC50 in μM. First, the anti-proliferative effect of CDK9 inhibitors is much more pronounced on BrdNut mutated cell lines (=sensitive cell lines).
Cell lines were maintained in RPMI 1640 cell culture medium+glutamine (PAN Biotech GmbH, Aidenbach, Germany; order no. P04-22100; P04-05500) supplemented with 10% fetal calf serum “Gold” (PAA Laboratories GmbH, Pasching, Austria; order no. A15-151) and grown in a humidified atmosphere at 37° C., 5% C02. As a first step, an optimal cell density for each cell line was determined to guarantee linearity. For viability assays with compounds, cells were then seeded at a density of 200 to 1000 per well in 25 μl in 384-well plates (Greiner Bio-One, Frickenhausen, Germany; order no. 781080). After overnight incubation at 37° C./5% CO2, 25 nl or 75 nl compounds were added to each sample well by using BIOMEK FX^P Laboratory Automation Workstation (Beckman Coulter, USA). Wells with cells and 0.1% or 0.3% DMSO in culture medium were used as positive controls, wells with cells and 10 μM staurosporine (Selleck Chemicals, Huston, USA) in culture medium were used as negative controls. […] Luminescence was measured by Envision Plate Reader (Perkin Elmer, USA). […]

| inhibition of CDK9 kinase activity, residual activity (in words) (CDK9/CycT) | IC50 (HCC2429 cells; 72 h incubation, ATP content/proliferation by CTG, 30 to 0.0137 μM) [µM] | SMILES | effect on proliferation of HCC2429 cells (in words) (HCC2429 cells) | proliferation inhibition in mutated, sensitive cell lines compared with wild type cell lines (in words) [1] |
| --- | --- | --- | --- | --- |
| inhibits only CDK9 with high potency | – | COc1ccccc1-c1ncnc(Nc2cccc(CS(N)(=O)=O)c2)n1 [Cpd B1, 3-[(4-(2-Methoxyphenyl)-1,3,5-triazin-2-yl)amino] benzenemethanesulfonamide] | potently affected proliferation of HCC2429 cells | – |
| – | – | COc1ccccc1-c1cc(Nc2cccc(CS(N)(=O)=O)c2)ncn1 [1073485-20-7P, 3-[[6-(2-methoxyphenyl)-4-pyrimidinyl]amino]-Benzenemethanesulfonamide] | – | much more potent in mutated, sensitive cell lines |
| – | > 10 | O=C1NC(=NCc2cccs2)S/C1=C\c1ccc2ncccc2c1 [Ro-3306] | did not show comparable effects | – |
